From US20160046592A1, “PHARMACEUTICAL COMPOSITION FOR THE TREATMENT OF DIABETES” (Ajinomoto Co., Inc., priority 2013, published 2016) come the findings set out here.

The experiment relates to Rat skeletal muscle-derived L6 myoblasts (differentiated into myotube cells). The experiment can be described thus: Evaluation of glycogen accumulation in L6. The class given is cell-based. Particulars: [14C] glycogen from D-[U-C14] glucose, 3 hours incubation, 100% = compound of Example 1 of WO/2011/058154 at 30 μM. The protocol:
The glycogen accumulation activity was evaluated in skeletal muscle cells according to the published article (ANALYTICAL BIOCHEMISTRY, Vol. 261: 159-163, 1998) by the following method. Rat skeletal muscle-derived L6 myoblasts (ATCC) were seeded in a 96-well collagen-coated plate (IWAKI, 4860-010) by using a growth medium (10% FBS-containing α-MEM medium (NACALAI TESQUE, INC., 21444-05)) under a condition of 4×10^4 cells/100 μL/well. After culturing under conditions of 37° C. and 5% CO2 overnight, the medium was replaced with a differentiation medium (2% FBS-containing α-MEM medium), followed by culturing for 3 days to differentiate the myoblasts into myotube cells. On the day of evaluation, the medium was replaced with a glucose-deprived medium (0.1% BSA-containing DMEM medium (Gibco, 11966)). After culturing for 4 hours, the medium was replaced with assay media (0.1% BSA-containing DMEM medium (NACALAI TESQUE, INC., 08456-65)) containing 0.6% DMSO and one of the test compounds at a concentration which was twice the final evaluation concentration at 15 μL/well. Further, an assay medium containing D-[U—C14] glucose (PerkinElmer Inc., NEC042V) at […] was added at 15 μL/well to adjust the final volume to 30 μL/well. Then, the cells were incubated under conditions of 37° C. and 5% CO2 for 3 hours. After the incubation, each medium was removed by suction with an aspirator, and the wells were rinsed with PBS at 200 μL/well twice. Then, 1 N NaOH was added at 50 μL/well, and the cells were lysed by incubation at 60° C. for 10 minutes. After the temperature of the lysed cells was returned to room temperature, each whole cell lysate and […] glycogen (Sigma-Aldrich, G8876) at 5 μL/well were added to a Multiscreen HTS (Millipore, MSFCN6B) to which 100% ethanol was added in advance at 100 μL/well, followed by incubation at 4° C. for 20 minutes. After the incubation, aspiration was conducted by using Multiscreen HTS Vacuum Manifold (Millipore), followed by rinse with 66% ethanol at 200 μL/well twice. After ethanol remaining on the filter was completely removed by drying, MicroScint40 (PerkinElmer Inc.) was added at 50 μL/well, the amount of [14C] glycogen was measured with TopCountNXT (PerkinElmer Inc.). The activity of each test compound was calculated by the following method. Specifically, the relative activity (%) was calculated as 100×(B−A)/(C−A), where A represents a value (cpm) measured for a well not containing the compound but containing only DMSO, B represents a value measured for a well containing the compound and DMSO, and C represents a value measured for a well containing the compound of Example 1 of WO/2011/058154 at a final concentration of 30 μM. EC50 representing the concentration of the compound at which an increase in activity by 50% was caused was calculated using XLfit (idbs).

As usually defined, the EC50 is the midpoint of the concentration-response curve. The low end stands for higher potency in that assay, the high end for lower potency in that assay. `COC[C@@H]1CC[C@@H](C(=O)O)N1C(=O)c1cccc(COc2ccc(-c3cc(F)c(F)cc3SC)cc2)c1` [Example 62, (2S,5S)-1-[3-[[4-(4,5-Difluoro-2-methylsulfanyl-phenyl)phenoxy]methyl]benzoyl]-5-(methoxymethyl)pyrrolidine-2-carboxylic Acid] gave an EC50 below 300 nM.
